Source: PMC12194305, “Assessing Bioconcentration and Biotransformation of BDE-47 In Vitro: The Relevance of Bioavailable and Intracellular Concentrations” (Journal of Xenobiotics, 2025)
Read-outs that look alike come from different tables or passages of the source.

Tests used:
ZFL cells = experiment: Mass balance model (MBM) prediction of Cfree and Ccell; design: species or system zebrafish
Procedure: Ccell and Cfree were determined for the BDE-47 using Fisher et al.’s mass balance model (MBM). In brief, the test system parameters for the experiment (Table S3) and BDE-47 distribution parameters (Table S4) estimated by the UFZ-LSER Calculation Partition System tool were first entered into the MBM spreadsheet. Although this model includes preset parameters for various cell lines, the input fields for cell-line type and culture medium were left empty for ZFL, and generic parameters were applied instead. Then, data for fractions of cell (fcell), total medium (fmedium), cell membrane (fmem) and the water phase of the medium (fw,medium) compartment were output (Table S5) and applied to each experimentally determined BDE-47 Cmedium to estimate the Cfree, MBM and Ccell, MBM at each exposure time.

[1] = Abiotic (volatilization) losses, contaminated medium without cells; format: physicochemical
Procedure: A total of 2 × 10^6 ZFL cells were plated in P100 glass dishes and incubated for 24 h under standard culture conditions. Subsequently, the culture medium was replaced with a contaminated medium, which, according to the cell viability assay, maintained viability above 70% by the end of the exposure period (Section 2.3). Cells were exposed to 1.8 and 2.6 mg⋅L^−1 for 24, 48 and 72 h, in two independent experiments. Parallel experiments were conducted under identical conditions to assess losses: one set included cells without contaminated medium, and another consisted of contaminated medium without cells (“no cells”). The obtained pellets were collected from all exposure time, dried under a gentle stream of nitrogen and weighed on a precision analytical balance (±0.00001 g). Finally, the dried cell pellets and their corresponding medium collected at all exposure times, including the starting medium (“t = 0 h”), were stored at −20 °C until analysis.
One of the objectives was to assess whether cell lines can be used within the BCF-IVIVE model, relying on intrinsic clearance in vitro, to estimate the biotransformation rate which is subsequently extrapolated to adult fish. This approach is based on the model developed by Nichols et al. and is endorsed by the OECD guideline 319A [10] and OECD 2018a. Briefly, the log10-transformed substrate experimental concentrations in the medium (Cmed) were plotted against time, and the first-order elimination rate constant (ke, h^−1) was determined as −2.3 × slope of the log-linear decline. Black et al. indicate that a correction to the elimination rate constant (ke) should be applied when the following conditions are met: (i) abiotic losses from volatilization, calculated by comparing the recovery of negative control samples (“no cells”) at each exposure time to the initial time, fall outside the acceptable range of 80–120%, (ii) the loss process follows first order kinetics, and (iii) the ratio of ke and the volatilization rate constant (kvolat) is below 10 (ke/kvolat < 10). Then, the constant corrected for losses due to volatilization (ke,loss) was determined as −2.3 × the difference of the slopes of the sample and the loss control of the log-linear descent. The in vitro constant was then extrapolated to obtain an in vivo metabolization constant (kMET). This was done using experimental cell concentration (CHEP, 10^6 cells/mL) and default parameters derived from rainbow trout. In this study, in addition to estimating BCF with the official model parameters derived from rainbow trout (BCFIVIVE,RT), BCF was also estimated with the literature-derived parameters for zebrafish (BCFIVIVE,ZF), due to the use of ZFL cells. Finally, the BCF was estimated by the ratio of concentration in the organism to concentration in the medium, following the standardized model. The concentration in the organism was predicted using the one-compartment model given by Arnot and Gobas, which includes the rate constants describing chemical uptake (k1), loss through the gills (k2), fecal egestion (kE), growth rate (kG) and metabolization rate (kMET). Except for kMET, which is estimated experimentally in vitro, the rest are only dependent on the log KOW of the compound. On the other hand, due to the use of cell lines, the free concentration estimated was introduced instead of the total concentration in the medium (CW,TOT).

zebrafish = experiment: IVIVE-BCF model with zebrafish default parameters; format: in vitro ADME; conditions: k1 and k2 from experimental Ccell and Cfree
[2] = system: Mytilus galloprovincialis (mussel); conditions: cited from earlier work
[3] = cited from earlier work

Brc1ccc(Oc2ccc(Br)cc2Br)c(Br)c1 [BDE-47, 2,2′,4,4′-tetrabromodiphenyl ether]
Ratio MBM/experimental of internal concentration (ZFL cells; 24h, 1.8 mg·L-1, ZFL cells): 51%
Ratio MBM/experimental of internal concentration (ZFL cells; 24h, 2.6 mg·L-1, ZFL cells): 73%
Ratio MBM/experimental of internal concentration (ZFL cells; 48h, 1.8 mg·L-1, ZFL cells): 44%
Ratio MBM/experimental of internal concentration (ZFL cells; 48h, 2.6 mg·L-1, ZFL cells): 78%
Ratio MBM/experimental of internal concentration (ZFL cells; 72h, 1.8 mg·L-1, ZFL cells): 36%
Ratio MBM/experimental of internal concentration (ZFL cells; 72h, 2.6 mg·L-1, ZFL cells): 66%
Recovery of losses from volatilization (% Rec. Vol.) ([1]; 24h, 1.8 mg·L-1, no cells vs time 0h): 76%
Recovery of losses from volatilization (% Rec. Vol.) ([1]; 24h, 2.6 mg·L-1, no cells vs time 0h): 73%
Recovery of losses from volatilization (% Rec. Vol.) ([1]; 48h, 1.8 mg·L-1, no cells vs time 0h): 69%
Recovery of losses from volatilization (% Rec. Vol.) ([1]; 48h, 2.6 mg·L-1, no cells vs time 0h): 63%
Recovery of losses from volatilization (% Rec. Vol.) ([1]; 72h, 1.8 mg·L-1, no cells vs time 0h): 68%
Recovery of losses from volatilization (% Rec. Vol.) ([1]; 72h, 2.6 mg·L-1, no cells vs time 0h): 52%
decrease in Cmedium,no cells with respect to nominal concentration ([1]; Cnominal 1.8 mg·L^−1, cell-free sample): 29%
decrease in Cmedium,no cells with respect to nominal concentration ([1]; Cnominal 2.6 mg·L^−1, cell-free sample): 37%
BCFIVIVE, ZF, exp (zebrafish; Cnominal 1.8 mg·L^−1): 22,614 L·kg^−1
BCFIVIVE, ZF, exp (zebrafish; Cnominal 2.6 mg·L^−1): 38,948 L·kg^−1
BCFk ([2]; 0.31 ng·L^−1): 26,000 L·kg^−1
BCFk ([2]; 8 µg·L^−1): 10,900 L·kg^−1
Henry's law constant (KH) ([3]; at 30 °C): 1.79 ± 0.21 Pa·m^3·mol^−1
log Kow [3]: 6.81
log DPDMS/medium ([3]; partition constant PDMS fiber/medium): 5.84
